From DBAASP
Values after ≈ are worked out from the molar mass of the structure shown.

Columns and labels:
Assay in all cases: ≥ marks a high value that may be exact or a test limit, other limits are often not marked, values filed in µg/mL are converted to µM
[1] = test system: Aeromonas intestinalis 58209
[2] = test system: Pseudomonas fluorescens 56-12-10
[3] = test system: Vibrio anguillarum E-3-11
[4] = test system: Pseudomonas fluorescens biotype I W81-11
[5] = test system: Escherichia coli DH5alpha
[6] = test system: Aeromonas hydrophila 12
[7] = test system: Yersinia ruckeri SC90-2-4
[8] = test system: Vibrio anguillarum SGL 8542
[9] = test system: Flavobacterium columnare G4
[10] = test system: Aeromonas sobria CR79-1-1

## CC[C@H](C)[C@H](N)C(=O)N[C@@H](Cc1ccccc1)C(=O)N[C@@H](Cc1cnc[nH]1)C(=O)N[C@@H](Cc1cnc[nH]1)C(=O)N[C@H](C(=O)N[C@@H](Cc1ccccc1)C(=O)N[C@@H](CCCCN)C(=O)NCC(=O)N[C@H](C(=O)N[C@H](C(=O)N[C@@H](Cc1cnc[nH]1)C(=O)N[C@H](C(=O)NCC(=O)N[C@@H](CCCCN)C(=O)N[C@H](C(=O)N[C@H](C(=O)N[C@@H](Cc1cnc[nH]1)C(=O)N[C@@H](CCCN=C(N)N)C(=O)N[C@@H](CC(C)C)C(=O)N[C@H](C(=O)N[C@H](C(=O)NCC(N)=O)[C@@H](C)O)C(C)C)[C@@H](C)CC)[C@@H](C)O)C(C)C)C(C)C)[C@@H](C)CC)[C@@H](C)CC [IFHHIFKGIVHVGKTIHRLVTG]
[1]
  MIC: 14.1 µM (≈ 35.5 µg/mL)
[2]
  MIC: 14.1 µM (≈ 35.5 µg/mL)
[3]
  MIC: 28.3 µM (≈ 71 µg/mL)
[4]
  MIC: 14.1 µM (≈ 35.5 µg/mL)
[5]
  MIC: 7.07 µM (≈ 17.7 µg/mL)
[6]
  MIC: ≥ 160 µM
[7]
  MIC: 28.3 µM (≈ 71 µg/mL)
[8]
  MIC: ≥ 56.6 µM
[9]
  MIC: ≥ 56.6 µM
[10]
  MIC: 14.1 µM (≈ 35.5 µg/mL)
